Laboratory results taken from patent publication US20230286973A1, “PROTEIN SECRETION INHIBITORS” (KEZAR LIFE SCIENCES, priority 2020, published 2023).

Key:
[1] = tested on: TNFα-FL/Gaussia Luciferase; assay: Dox Induced TNFα-FL-Gluc Assay; type: cell-based; conditions: for IC50: 24 hr Dox induction, 293FRT/TO cells, read-out: 24 hr Dox Inducible TNFaFLGluc 293FRT/TO: Mean IC50; for 24 hr Dox Inducible TNFaFLGluc 293FRT/TO: TNF/PD1: ratio of TNFaFLGluc IC50 to PD1ssGluc IC50
Outline: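 Doxycycline-inducible Gaussia luciferase-tagged full-length TNFα (1-233) was expressed in stable Flp-In 293 T-REx cells. Compounds were co-added with doxycycline and incubated at 37 °C, 5% CO2.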

[2] = tested on: IL-2-FL/Gaussia Luciferase; assay: Dox Induced IL2-FL-Gluc Assay; type: cell-based; conditions: for IC50: 24 hr Dox induction, 293FRT/TO cells, read-out: 24 hr Dox Inducible IL2FLGluc 293FRT/TO: Mean IC50; for 24 hr Dox Inducible IL2FLGluc 293FRT/TO: IL2/PD1: ratio of IL2FLGluc IC50 to PD1ssGluc IC50
Outline: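 Doxycycline induces an IL-2(1-153)–Gaussia luciferase fusion in a stable Flp-In 293 T-REx line. Compound exposure runs alongside induction at 37° C.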

[3] = Liver Microsome Stability Assay (human); conditions: human liver microsomes, with NADPH, 1.0 uM compound
Description: (§1) Stability of a compound was assessed in the presence of liver microsomes from various sources—mouse, rat, monkey and human liver microsomes. 1.0 uM compound, 0.4% DMSO in 0.1 M Potassium Phosphate with 1.0 mg/mL liver microsomes, were incubated at 37° C. with or without 1 mM NADPH. The samples were quenched at 0, and 30 minutes.

[4] = Liver Microsome Stability Assay (rat); conditions: rat liver microsomes, with NADPH, 1.0 uM compound
Description: as §1

[5] = Liver Microsome Stability Assay (monkey); conditions: monkey liver microsomes, with NADPH, 1.0 uM compound
Description: as §1

[6] = tested on: PD1-ss+10aa/Gaussia Luciferase; assay: Dox-Induced PD1-ss-Gluc Assay; type: cell-based; conditions: 24 hr Dox induction; 293FRT/TO cells; read-out: 24 hr Dox Inducible PD1ssGluc 293FRT/TO: Mean IC50
Outline: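 Flp-In 293 T-REx, stable line; Tet-regulated PD1-ss+10aa fused to Gaussia luciferase; plated day prior; cpd + doxycycline in DMSO/media; 37 °C, 5% CO2.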

[7] = tested on: HER3-ss+4aa/Gaussia Luciferase; assay: Dox-Induced Her3-ss-Gluc Assay; type: cell-based; conditions: 24 hr Dox induction; 293FRT/TO cells; read-out: 24 hr Dox Inducible Her3(ss + 4)Gluc 293FRT/TO: Mean IC50
Outline: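 Reporter line: Flp-In 293 T-REx, T-REx-regulated HER3-ss+4aa fused to Gaussia luciferase. Compound co-added with doxycycline after overnight plating, 37° C., 5% CO2.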

[8] = Liver Microsome Stability Assay (mouse); conditions: mouse liver microsomes, with NADPH, 1.0 uM compound
Description: as §1

[9] = tested on: multiple myeloma cell line NCI-H929; assay: H929 Cell Viability Assay; type: cell-based, human; conditions: Homo sapiens, NCI-H929, 48 h, NCI-H929 cells, Celltiter-Glo
Outline: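 Viability is scored by CellTiter-Glo luminescence following a 48-hour treatment at 37° C. Data for structures shown without stereochemistry refer to stereoisomer mixtures.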

[10] = tested on: multiple myeloma cell line U266B1; assay: U266 Cell Viability Assay; type: cell-based, human; conditions: Homo sapiens, U-266, 48 h, U266B1 cells, Celltiter-Glo
Outline: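 Viability is measured as luciferase signal from CellTiter-Glo following a 48-hour incubation with compound at 37° C. under 5% CO2. Where structures lack drawn stereochemistry, values refer to stereoisomer mixtures.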

Row | SMILES | IC50 [1] [µM] | 24 hr Dox Inducible TNFaFLGluc 293FRT/TO: TNF/PD1 [1] | IC50 [2] [µM] | 24 hr Dox Inducible IL2FLGluc 293FRT/TO: IL2/PD1 [2] | Liver Microsome Stability (Multiple Species): Human - % Remaining after 30 min w/NADPH [3] [%] | Liver Microsome Stability (Multiple Species): Rat - % Remaining after 30 min w/NADPH [4] [%] | Liver Microsome Stability (Multiple Species): Monkey - % Remaining after 30 min w/NADPH [5] [%] | IC50 [6] [µM] | IC50 [7] [µM] | Liver Microsome Stability (Multiple Species): Mouse - % Remaining after 30 min w/NADPH [8] [%] | EC50 [9] [µM] | EC50 [10] [µM]
1 | CC(C)n1cc(/C=C/c2csc(NC(=O)c3cccn3Cc3ccnc(F)c3)n2)nc1CO [Compound B103, (E)-1-((2-fluoropyridin-4-yl)methyl)-N-(4-(2-(2-(hydroxymethyl)-1-isopropyl-1H-imidazol-4-yl)vinyl)thiazol-2-yl)-1H-pyrrole-2-carboxamide] | > 25 | >2.49 | > 25 | >2.5 | 1.87 | 19.5 | 1.64 | 10.1 | > 25 | 28.7 | > 25 | > 25
2 | O=C(Nc1nc(/C=C/c2cn(-c3ccccc3)cn2)cs1)c1cccn1Cc1ccnc(F)c1 [Compound B104, (E)-1-((2-fluoropyridin-4-yl)methyl)-N-(4-(2-(1-phenyl-1H-imidazol-4-yl)vinyl)thiazol-2-yl)-1H-pyrrole-2-carboxamide] | 4.99 | 809 | 1.28 | 210 | 0.21 | 2.24 | 0.14 | 0.00616 | 0.785 | 4.41 | > 25 | > 25
3 | O=C(Nc1nc(/C=C/c2cn(Cc3ccccc3)cn2)cs1)c1cccn1Cc1ccnc(F)c1 [Compound B105, (E)-N-(4-(2-(1-benzyl-1H-imidazol-4-yl)vinyl)thiazol-2-yl)-1-((2-fluoropyridin-4-yl)methyl)-1H-pyrrole-2-carboxamide] | > 25 | >1050 | 2.84 | 120 | 0.11 | 2.65 | 0.05 | 0.0238 | 2.24 | 4.32 | > 25 | > 25
4 | CC(C)n1cnc(/C=C/Cc2csc(NC(=O)c3cccn3Cc3ccnc(F)c3)n2)c1 [Compound B106, (E)-1-((2-fluoropyridin-4-yl)methyl)-N-(4-(3-(1-isopropyl-1H-imidazol-4-yl)allyl)thiazol-2-yl)-1H-pyrrole-2-carboxamide] | > 25 | >36.1 | 3.01 | 4.3 | 0.59 | 5.01 | 0.06 | 0.692 | 1.28 | 0.95 | > 25 | > 25
5 | CC(C#N)n1cnc(/C=C/c2csc(NC(=O)c3cccn3Cc3ccnc(F)c3)n2)c1 (stereo not drawn) [Compound B107, (E)-N-(4-(2-(1-(1-cyanoethyl)-1H-imidazol-4-yl)vinyl)thiazol-2-yl)-1-((2-fluoropyridin-4-yl)methyl)-1H-pyrrole-2-carboxamide] | > 25 | >52.5 | > 25 | >52 | 0.55 | 18.8 | 0.33 | 0.476 | > 25 | 35.4 | > 25 | > 25
6 | N#CCCn1cnc(/C=C/c2csc(NC(=O)c3cccn3Cc3ccnc(F)c3)n2)c1 [Compound B108, (E)-N-(4-(2-(1-(2-cyanoethyl)-1H-imidazol-4-yl)vinyl)thiazol-2-yl)-1-((2-fluoropyridin-4-yl)methyl)-1H-pyrrole-2-carboxamide] | > 25 | >4.14 | > 25 | >4.1 | 0.43 | 23.9 | 0.69 | 6.04 | > 25 | 55.7 | > 25 | > 25
7 | NC(=O)CCn1cnc(/C=C/c2csc(NC(=O)c3cccn3Cc3ccnc(F)c3)n2)c1 [Compound B109, (E)-N-(4-(2-(1-(3-amino-3-oxopropyl)-1H-imidazol-4-yl)vinyl)thiazol-2-yl)-1-((2-fluoropyridin-4-yl)methyl)-1H-pyrrole-2-carboxamide] | > 25 | <=>1.00 | > 25 | <=>1.0 | 10.2 | 60.4 | 5.04 | > 25 | > 25 | 60.2 | > 25 | > 25
8 | CC(CC#N)n1cnc(/C=C/c2csc(NC(=O)c3cccn3Cc3ccnc(F)c3)n2)c1 (stereo not drawn) [Compound B110, (E)-N-(4-(2-(1-(1-cyanopropan-2-yl)-1H-imidazol-4-yl)vinyl)thiazol-2-yl)-1-((2-fluoropyridin-4-yl)methyl)-1H-pyrrole-2-carboxamide] | > 25 | >11.3 | > 25 | >11 | 0.38 | 32.4 | 0.51 | 2.21 | > 25 | 44.9 | > 25 | > 25
9 | CC(CC(N)=O)n1cnc(/C=C/c2csc(NC(=O)c3cccn3Cc3ccnc(F)c3)n2)c1 (stereo not drawn) [Compound B111, (E)-N-(4-(2-(1-(4-amino-4-oxobutan-2-yl)-1H-imidazol-4-yl)vinyl)thiazol-2-yl)-1-((2-fluoropyridin-4-yl)methyl)-1H-pyrrole-2-carboxamide] | > 25 | ⇔1.00 | > 25 | <=>1.0 | 9.45 | 75.4 | 5.79 | > 25 | > 25 | 61.7 | > 25 | > 25
